Laboratory results taken from US7387798B2, “Method and composition for resuscitation” (priority 2004, dated 2008).
“Also recorded” adds a separate entry of the source.

Assays:
[1] = system: cultured neurons; details: continuous application, 100 μM; cited from earlier work
[2] = Neural protective effect of colloid osmotic agents and Polypeptides (stated, no method given); details: general statement, no experiment described

| Compound | axonal transport of membrane-bound organelles in anterograde and retrograde directions [1] | protecting the CNS tissue (neural protective effect) [2] |
| --- | --- | --- |
| Nc1ncnc2c1ncn2[C@@H]1O[C@H](COP(=O)(O)OP(=O)(O)OP(=O)(O)O)[C@@H](O)[C@H]1O [ATP, Adenosine 5′-triphosphate] | significantly increased | – |
| O=c1ccn([C@@H]2O[C@H](COP(=O)(O)OP(=O)(O)OP(=O)(O)O)[C@@H](O)[C@H]2O)c(=O)[nH]1 [Uridine 5′-triphosphate] | effect similar to ATP | – |
| Collagen | – | effective |
| Dextran | – | ineffective; also recorded: do not confer neuroprotective effect |
| Hetastarch | – | ineffective |
| albumin | – | effective |
